# Entries after “also recorded” stand apart in the source; their conditions may differ.
# Experiments:
# EYFP-hCAR = biological target: T1, EYFP-hCAR (Homo sapiens, UniProt Q14994); experiment: Nuclear translocation of Ad/EYFP-hCAR in human primary hepatocytes; type: cell-based; details: HPH
# T1 construct: expressed in transfected cells; host or cells: human primary hepatocytes infected with Ad/EYFP-hCAR
# T1 sequence (Q14994 1-348 isoform Q14994-2): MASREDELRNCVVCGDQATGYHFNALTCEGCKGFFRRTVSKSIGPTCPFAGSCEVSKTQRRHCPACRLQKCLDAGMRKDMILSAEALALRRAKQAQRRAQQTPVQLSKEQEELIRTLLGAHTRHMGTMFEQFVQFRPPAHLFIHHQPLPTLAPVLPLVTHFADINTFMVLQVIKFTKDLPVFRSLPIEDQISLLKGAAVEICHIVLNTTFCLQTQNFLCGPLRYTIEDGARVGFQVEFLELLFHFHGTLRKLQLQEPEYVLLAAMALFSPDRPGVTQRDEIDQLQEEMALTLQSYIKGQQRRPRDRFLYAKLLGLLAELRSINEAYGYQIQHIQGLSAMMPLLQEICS
# Procedure: A recombinant adenovirus expressing enhanced yellow fluorescent protein-tagged hCAR (Ad/EYFP-hCAR) was generated as described previously. Hepatocytes cultured in 96-well collagen-coated plates in serum free Williams’ E medium were infected with Ad/EFYP-hCAR (1 μl/well) for 12 h before treatment with the vehicle control, DMSO (0.1%), PB (1 mM), and selected compounds for another 8 h. Subcellular localization of hCAR was visualized using a Nikon (Tokyo, Japan) C1-LU3 instrument based on an inverted Nikon Eclipse TE2000 microscope.
# human CAR (hCAR) [1] = biological target: T2, human CAR (hCAR) (Homo sapiens, UniProt Q14994); experiment: hCAR luciferase reporter qHTS, agonist mode (HepG2-CYP2B6-hCAR cells, PK11195 co-treatment); details: for EC50 / Follow-up Confirmation Efficacy / Primary Screen Efficacy: agonist mode; for Follow-up Confirmation Efficacy: relative to CITCO (100%); for Primary Screen Efficacy: relative to CITCO Emax (100%)
# T2 sequence (Q14994 1-348 isoform Q14994-2): T1 sequence (Q14994 1-348 isoform Q14994-2)
# CYP2B6 = CYP2B6 mRNA expression in HPH (real-time PCR); details: HPH; for Induction of hCAR target genes: target genes CYP2B6 and CYP3A4; for Effect on CYP2B6 mRNA expression: 24 h, vs vehicle control (0.1% DMSO)
# human CAR (hCAR) [2] = biological target: T2, human CAR (hCAR); experiment: hCAR luciferase reporter qHTS, antagonist mode (HepG2-CYP2B6-hCAR cells, CITCO co-treatment); details: for IC50 / Follow-up Confirmation Efficacy / Primary Screen Efficacy: antagonist mode; for Follow-up Confirmation Efficacy / Primary Screen Efficacy: relative to PK11195 (100%);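 as to all read-outs here: stable HepG2 line carrying hCAR plus a CYP2B6 promoter (PBREM/XREM) luciferase reporter, 1536-well format, 24 h compound exposure at 37 °C, then luminescence read with ONE-Glo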
# CYP3A4 = CYP3A4 mRNA expression in HPH (real-time PCR); type: cell-based, human; details: HPH, 24 h, vs vehicle control (0.1% DMSO)
# CAR, CYP2B6, or CYP3A4 = details: previously known; reference not given; cited from earlier work
# HepG2-CYP2B6-hCAR cells = experiment: Cell viability assay (CellTiter-Glo ATP quantitation); type: cell-based, human; parameters: key to Cytotoxicity (activity call): Inactive: considered inactive if efficacy is less than 30%; details: 24 h
# Procedure: The potential cytotoxicity of the NPC compounds in HepG2-CYP2B6-hCAR cells was measured using a luciferase-coupled ATP quantitation assay (CellTiter-Glo viability assay, Promega). The change of intracellular ATP content indicates the number of metabolically competent cells. The cells were seeded at 2,500 cells/5 μl in 1536-well plates and were exposed to each test compound at concentrations and treatment duration as previously mentioned. The assay plates were incubated for 24 h at 37 °C, followed by the addition of 4 μl/well of CellTiter-Glo reagent. After 30 min incubation at RT, the luminescence intensity of the plates was measured using a ViewLux plate reader.
# hPXR = biological target: T3, hPXR (Homo sapiens, UniProt O75469); experiment: Transient hPXR luciferase assay in HepG2 cells (CYP2B6-2.2 kb reporter); type: cell-based; details: HepG2, 24 h, in the presence or absence of rifampicin (10 μM)
# T3 construct: expressed in transfected cells; host or cells: HepG2 (transient transfection)
# T3 sequence (O75469 1-434): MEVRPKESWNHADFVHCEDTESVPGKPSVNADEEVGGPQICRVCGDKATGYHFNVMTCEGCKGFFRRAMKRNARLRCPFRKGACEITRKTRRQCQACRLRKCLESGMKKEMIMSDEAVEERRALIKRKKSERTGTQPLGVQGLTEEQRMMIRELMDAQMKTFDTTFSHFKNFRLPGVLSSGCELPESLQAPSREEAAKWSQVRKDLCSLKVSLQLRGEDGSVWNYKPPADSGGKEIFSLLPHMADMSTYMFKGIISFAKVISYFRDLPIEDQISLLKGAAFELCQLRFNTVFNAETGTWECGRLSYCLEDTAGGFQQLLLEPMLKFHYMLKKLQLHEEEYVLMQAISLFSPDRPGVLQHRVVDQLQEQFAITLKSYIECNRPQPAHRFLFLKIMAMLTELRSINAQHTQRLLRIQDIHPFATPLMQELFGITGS
# Procedure: HepG2 cells cultured in a 24-well plate were co-transfected with the CYP2B6-2.2 kb reporter and hPXR expression vectors using a Lipofectamine® 2000 Transfection Kit (Life Technologies) following the manufacturer’s instruction. […] Cell lysates were assayed for firefly luciferase activities normalized against the activities of co-transfected Renilla luciferase using a Dual-Luciferase Kit (Promega). Data were represented as mean±SD of three individual transfections.
# [3] = Follow-up Confirmation Potency (EC50), follow-up cherry-pick, 11-point titration
# [4] = Primary Screen Potency (EC50), primary qHTS, 2.5 μM PK11195, 24 h
# [5] = Follow-up Confirmation Potency (IC50), follow-up cherry-pick, 11-point titration
# [6] = Primary Screen Potency (IC50), primary qHTS, 0.1 μM CITCO, 24 h
Structure (SMILES),EC50 (human CAR (hCAR) [1]; [3]) [µM],EC50 (human CAR (hCAR) [1]; [4]) [µM],Follow-up Confirmation Efficacy (human CAR (hCAR) [1]; follow-up cherry-pick) [%],Primary Screen Efficacy (human CAR (hCAR) [1]; primary qHTS) [%],IC50 (human CAR (hCAR) [2]; [5]) [µM],IC50 (human CAR (hCAR) [2]; [6]) [µM],Follow-up Confirmation Efficacy (human CAR (hCAR) [2]; follow-up cherry-pick) [%],Primary Screen Efficacy (human CAR (hCAR) [2]; primary qHTS) [%],Effect on CYP3A4 mRNA expression (CYP3A4),"Known modulator of CAR, CYP2B6, or CYP3A4? (CAR, CYP2B6, or CYP3A4)",Cytotoxicity (activity call) (HepG2-CYP2B6-hCAR cells),other results
Nc1ccc(Cl)cc1C(=O)c1ccccc1F [2-Amino-5-chloro-2’-fluorobenzophenone],15.6,3.4,67,60,,,,,,,,hCAR nuclear translocation (in words) (EYFP-hCAR; listed as ACFB): didn’t translocate hCAR; also recorded: neither translocated hCAR; Induction of hCAR target genes (CYP2B6; listed as ACFB): negligible induction; also recorded: nor induced the expression of its target genes
Nc1ncnc2c1ncn2CCOCP(=O)(O)O [Adefovir],,,,,0.77,0.76,-87,-102,negligible effect,CYP3A4 inhibitor,Inactive,Effect on basal and RIF-induced PXR activity (hPXR): no effects on either basal or RIF-induced hPXR activation
CN1CCc2cccc3c2[C@H]1Cc1ccc(O)c(O)c1-3 [Apomorphine],13.3,19,38,21,,,,,,,,hCAR nuclear translocation (in words) (EYFP-hCAR): didn’t translocate hCAR; also recorded: neither translocated hCAR; Induction of hCAR target genes (CYP2B6): negligible induction; also recorded: nor induced the expression of its target genes
CCO[C@H]1O[C@@H]2O[C@@]3(C)CC[C@H]4[C@H](C)CC[C@@H]([C@H]1C)[C@@]24OO3 [Artemotil],5,2.1,71,33,,,,,markedly enhanced,Activates CAR and Induces CYP2B6,,Effect on CYP2B6 mRNA expression (CYP2B6): significantly induced
COc1cc(Nc2c(C#N)cnc3cc(OCCCN4CCN(C)CC4)c(OC)cc23)c(Cl)cc1Cl [Bosutinib],,,,,,,,,,,Inactive,
"Clc1ccc(-c2nc3sccn3c2C=NOCc2ccc(Cl)c(Cl)c2)cc1 [CITCO, 6-(4-chlorophenyl) imidazo[2,1-b][1,3]-thiazole-5-carbaldehyde-O-(3,4-dichlorobenzyl)oxime]",,,,,,,,,,,,"Effect on hCAR activity (antagonist mode optimization, Fig. 4A) (human CAR (hCAR) [2]; PK11195 at varying concentrations, CITCO co-treatment at 75 nM, 100 nM, or 200 nM): moderate but concentration-dependent increase of the basal activity of hCAR; Effect on hCAR activity (agonist mode optimization, Fig. 1A) (human CAR (hCAR) [1]; PK11195 at 2.5 μM and 5.0 μM, CITCO co-treated with PK11195): restored the hCAR activity in a concentration-dependent manner"
COc1cc(N)c(Cl)cc1C(=O)NC1CCN(Cc2ccccc2)CC1 [Clebopride],9.4,7.6,80,52,,,,,markedly enhanced,,,Effect on CYP2B6 mRNA expression (CYP2B6): significantly induced; also recorded: potent induction exceeding that of CITCO
C[C@H]1O[C@@H](O[C@H]2[C@@H](O)C[C@H](O[C@H]3[C@@H](O)C[C@H](O[C@H]4CC[C@@]5(C)[C@H](CC[C@@H]6[C@@H]5CC[C@]5(C)[C@@H](C7=CC(=O)OC7)CC[C@]65O)C4)O[C@@H]3C)O[C@@H]2C)C[C@H](O)[C@@H]1O [Digitoxin],,,,,0.29,0.08,-98,-76,,,Inactive,
CO[C@@]12[C@H](COC(N)=O)C3=C(C(=O)C(C)=C(N)C3=O)N1C[C@@H]1N[C@@H]12 [Mitomycin C],,,,,0.75,0.43,-110,-91,,PXR deactivator,Inactive,Identified as hCAR antagonist/deactivator in the qHTS (human CAR (hCAR) [2]; primary qHTS of 2816 NPC compounds): antagonist of hCAR
Cc1c(O)cccc1C(=O)N[C@@H](CSc1ccccc1)[C@H](O)CN1C[C@H]2CCCC[C@H]2C[C@H]1C(=O)NC(C)(C)C [Nelfinavir],,,,,11,9.52,-101,-88,negligible effect,,Inactive,Effect on basal and RIF-induced PXR activity (hPXR): induced hPXR activation to an extent closer to that of RIF
